Measurements taken from publication PMC11974928 (bioRxiv, 2025).

System: GL261 cells
Test: Orthotopic GL261 allograft survival
Assay type: in vivo, mouse
Conditions: C57BL/6, 25 mg/kg 3x weekly, compared to vehicle

CCN1CCN(Cc2ccc(Nc3ncc(F)c(-c4cc(F)c5nc(C)n(C(C)C)c5c4)n3)nc2)CC1 [Abemaciclib]
overall survival of glioma-bearing mice: effective
